Results published in the supplement of paper PMC10307832.

Experiments:
Experiment in all cases: relative viability (nuclei count vs DMSO), 5 days (fraction); higher = more cells survive
NCI-H520 = test system: NCI-H520
In short: (§1)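 Each reported value is a median over duplicate plates. It expresses relative viability: treated-well nuclei count divided by vehicle-well nuclei count. Lung cancer cell lines in 1536-well plates were dosed by pin tool a day after seeding, alone with one drug or with a fixed anchor-drug dose plus five library-drug doses (not always all listed) in √10 steps, and nuclei were counted after 5 days.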

NCI-H1975 = test system: NCI-H1975
In short: as §1

NCI-H2347 = test system: NCI-H2347
In short: as §1

EMC-BAC-2 = test system: EMC-BAC-2
In short: as §1

SW 1573 = test system: SW 1573
In short: as §1

ABC-1 = test system: ABC-1
In short: as §1

NCI-H1355 = test system: NCI-H1355
In short: as §1

NCI-H1793 = test system: NCI-H1793
In short: as §1

PC-3 [JPC-3] = test system: PC-3 [JPC-3]
In short: as §1

NCI-H460 = test system: NCI-H460
In short: as §1

NCI-H2009 = test system: NCI-H2009
In short: as §1

NCI-H2126 = test system: NCI-H2126
In short: as §1

NCI-H1944 = test system: NCI-H1944
In short: as §1

LCLC-97TM1 = test system: LCLC-97TM1
In short: as §1

NCI-H1993 = test system: NCI-H1993
In short: as §1

NCI-H441 = test system: NCI-H441
In short: as §1

SK-LU-1 = test system: SK-LU-1
In short: as §1

NCI-H1666 = test system: NCI-H1666
In short: as §1

NCI-H727 = test system: NCI-H727
In short: as §1

PC-14 = test system: PC-14
In short: as §1

NCI-H1755 = test system: NCI-H1755
In short: as §1

NCI-H2170 = test system: NCI-H2170
In short: as §1

NCI-H647 = test system: NCI-H647
In short: as §1

Question: How did the relative viability (NCI-H520; first compound 0.08 µM) turn out when Cc1cnc(-c2cnc(NCCNc3ccc(C#N)cn3)nc2-c2ccc(Cl)cc2Cl)[nH]1 + CC(=O)c1c(C)c2cnc(Nc3ccc(N4CCNCC4)cn3)nc2n(C2CCCC2)c1=O [Palbociclib] (partner 0.5 µM) was run?
Answer: The relative viability was 0.332.

Question: What about the relative viability (NCI-H520; first compound 0.253 µM) of the same compound?
Answer: The relative viability was 0.202.

Question: And the relative viability (NCI-H520; first compound 0.8 µM)?
Answer: Its relative viability is 0.224.

Question: What about the relative viability (NCI-H520; first compound 2.53 µM) of the same compound?
Answer: The relative viability was 0.265.

Question: And the relative viability (NCI-H1975; first compound 0.08 µM)?
Answer: The relative viability was 0.69.

Question: And the relative viability (NCI-H1975; first compound 0.253 µM)?
Answer: The relative viability was 0.519.

Question: And the relative viability (NCI-H1975; first compound 0.8 µM)?
Answer: The relative viability was 0.487.

Question: What about the relative viability (NCI-H1975; first compound 2.53 µM) of the same compound?
Answer: The relative viability was 0.301.

Question: What about the relative viability (NCI-H2347; first compound 0.08 µM) of the same compound?
Answer: The relative viability was 0.411.

Question: And the relative viability (NCI-H2347; first compound 0.253 µM)?
Answer: The relative viability was 0.406.

Question: What about the relative viability (NCI-H2347; first compound 0.8 µM) of the same compound?
Answer: The relative viability was 0.438.

Question: And the relative viability (NCI-H2347; first compound 2.53 µM)?
Answer: The relative viability was 0.493.

Question: What about the relative viability (EMC-BAC-2; first compound 0.08 µM) of the same compound?
Answer: Its relative viability is 0.544.

Question: And the relative viability (EMC-BAC-2; first compound 0.253 µM)?
Answer: The relative viability was 0.523.

Question: And the relative viability (EMC-BAC-2; first compound 0.8 µM)?
Answer: The relative viability was 0.543.

Question: What about the relative viability (EMC-BAC-2; first compound 2.53 µM) of the same compound?
Answer: Its relative viability is 0.512.

Question: What about the relative viability (SW 1573; first compound 0.08 µM) of the same compound?
Answer: The relative viability was 0.387.

Question: And the relative viability (SW 1573; first compound 0.253 µM)?
Answer: Its relative viability is 0.336.

Question: What about the relative viability (SW 1573; first compound 0.8 µM) of the same compound?
Answer: Its relative viability is 0.368.

Question: And the relative viability (SW 1573; first compound 2.53 µM)?
Answer: Its relative viability is 0.146.

Question: And the relative viability (ABC-1; first compound 0.08 µM)?
Answer: Its relative viability is 0.903.

Question: And the relative viability (ABC-1; first compound 0.253 µM)?
Answer: Its relative viability is 0.338.

Question: What about the relative viability (ABC-1; first compound 0.8 µM) of the same compound?
Answer: Its relative viability is 0.54.

Question: And the relative viability (ABC-1; first compound 2.53 µM)?
Answer: The relative viability was 0.675.

Question: And the relative viability (NCI-H1355; first compound 0.08 µM)?
Answer: The relative viability was 0.427.

Question: And the relative viability (NCI-H1355; first compound 0.253 µM)?
Answer: Its relative viability is 0.383.

Question: And the relative viability (NCI-H1355; first compound 0.8 µM)?
Answer: The relative viability was 0.407.

Question: And the relative viability (NCI-H1355; first compound 2.53 µM)?
Answer: Its relative viability is 0.383.

Question: And the relative viability (NCI-H1793; first compound 0.08 µM)?
Answer: The relative viability was 0.336.

Question: And the relative viability (NCI-H1793; first compound 0.253 µM)?
Answer: Its relative viability is 0.288.

Question: What about the relative viability (NCI-H1793; first compound 0.8 µM) of the same compound?
Answer: The relative viability was 0.282.

Question: What about the relative viability (NCI-H1793; first compound 2.53 µM) of the same compound?
Answer: Its relative viability is 0.386.

Question: And the relative viability (PC-3 [JPC-3]; first compound 0.08 µM)?
Answer: The relative viability was 0.533.

Question: What about the relative viability (PC-3 [JPC-3]; first compound 0.253 µM) of the same compound?
Answer: Its relative viability is 0.488.

Question: And the relative viability (PC-3 [JPC-3]; first compound 0.8 µM)?
Answer: The relative viability was 0.543.

Question: What about the relative viability (PC-3 [JPC-3]; first compound 2.53 µM) of the same compound?
Answer: Its relative viability is 0.503.

Question: And the relative viability (NCI-H460; first compound 0.08 µM)?
Answer: Its relative viability is 0.154.

Question: And the relative viability (NCI-H460; first compound 0.253 µM)?
Answer: Its relative viability is 0.0849.

Question: What about the relative viability (NCI-H460; first compound 0.8 µM) of the same compound?
Answer: The relative viability was 0.135.

Question: What about the relative viability (NCI-H460; first compound 2.53 µM) of the same compound?
Answer: Its relative viability is 0.146.

Question: What about the relative viability (NCI-H2009; first compound 0.08 µM) of the same compound?
Answer: Its relative viability is 0.256.

Question: And the relative viability (NCI-H2009; first compound 0.253 µM)?
Answer: The relative viability was 0.208.

Question: What about the relative viability (NCI-H2009; first compound 0.8 µM) of the same compound?
Answer: Its relative viability is 0.29.

Question: What about the relative viability (NCI-H2009; first compound 2.53 µM) of the same compound?
Answer: Its relative viability is 0.225.

Question: What about the relative viability (NCI-H2126; first compound 0.08 µM) of the same compound?
Answer: The relative viability was 0.369.

Question: And the relative viability (NCI-H2126; first compound 0.253 µM)?
Answer: Its relative viability is 0.355.

Question: What about the relative viability (NCI-H2126; first compound 0.8 µM) of the same compound?
Answer: The relative viability was 0.331.

Question: What about the relative viability (NCI-H2126; first compound 2.53 µM) of the same compound?
Answer: Its relative viability is 0.341.

Question: What about the relative viability (NCI-H1944; first compound 0.08 µM) of the same compound?
Answer: Its relative viability is 0.341.

Question: What about the relative viability (NCI-H1944; first compound 0.8 µM) of the same compound?
Answer: Its relative viability is 0.366.

Question: What about the relative viability (NCI-H1944; first compound 2.53 µM) of the same compound?
Answer: The relative viability was 0.322.

Question: And the relative viability (LCLC-97TM1; first compound 0.08 µM)?
Answer: The relative viability was 0.282.

Question: And the relative viability (LCLC-97TM1; first compound 0.253 µM)?
Answer: The relative viability was 0.17.

Question: What about the relative viability (LCLC-97TM1; first compound 0.8 µM) of the same compound?
Answer: The relative viability was 0.215.

Question: And the relative viability (LCLC-97TM1; first compound 2.53 µM)?
Answer: The relative viability was 0.209.

Question: What about the relative viability (NCI-H1993; first compound 0.08 µM) of the same compound?
Answer: The relative viability was 0.718.

Question: What about the relative viability (NCI-H1993; first compound 0.253 µM) of the same compound?
Answer: Its relative viability is 0.566.

Question: What about the relative viability (NCI-H1993; first compound 0.8 µM) of the same compound?
Answer: The relative viability was 0.621.

Question: And the relative viability (NCI-H1993; first compound 2.53 µM)?
Answer: Its relative viability is 0.679.

Question: And the relative viability (NCI-H441; first compound 0.08 µM)?
Answer: Its relative viability is 0.224.

Question: And the relative viability (NCI-H441; first compound 0.8 µM)?
Answer: The relative viability was 0.258.

Question: And the relative viability (NCI-H441; first compound 2.53 µM)?
Answer: Its relative viability is 0.185.

Question: And the relative viability (SK-LU-1; first compound 0.08 µM)?
Answer: The relative viability was 0.417.

Question: And the relative viability (SK-LU-1; first compound 0.253 µM)?
Answer: Its relative viability is 0.474.

Question: And the relative viability (SK-LU-1; first compound 0.8 µM)?
Answer: The relative viability was 0.337.

Question: And the relative viability (SK-LU-1; first compound 2.53 µM)?
Answer: Its relative viability is 0.524.

Question: What about the relative viability (NCI-H1666; first compound 0.08 µM) of the same compound?
Answer: Its relative viability is 0.607.

Question: What about the relative viability (NCI-H1666; first compound 0.253 µM) of the same compound?
Answer: Its relative viability is 0.626.

Question: What about the relative viability (NCI-H1666; first compound 0.8 µM) of the same compound?
Answer: Its relative viability is 0.615.

Question: What about the relative viability (NCI-H1666; first compound 2.53 µM) of the same compound?
Answer: Its relative viability is 0.609.

Question: And the relative viability (NCI-H727; first compound 0.08 µM)?
Answer: The relative viability was 0.659.

Question: And the relative viability (NCI-H727; first compound 0.253 µM)?
Answer: The relative viability was 0.637.

Question: And the relative viability (NCI-H727; first compound 0.8 µM)?
Answer: The relative viability was 0.644.

Question: And the relative viability (NCI-H727; first compound 2.53 µM)?
Answer: Its relative viability is 0.663.

Question: And the relative viability (PC-14; first compound 0.08 µM)?
Answer: Its relative viability is 0.572.

Question: And the relative viability (PC-14; first compound 0.253 µM)?
Answer: Its relative viability is 0.503.

Question: What about the relative viability (PC-14; first compound 0.8 µM) of the same compound?
Answer: Its relative viability is 0.614.

Question: What about the relative viability (PC-14; first compound 2.53 µM) of the same compound?
Answer: The relative viability was 0.323.

Question: What about the relative viability (NCI-H1755; first compound 0.08 µM) of the same compound?
Answer: The relative viability was 0.418.

Question: What about the relative viability (NCI-H1755; first compound 0.253 µM) of the same compound?
Answer: Its relative viability is 0.443.

Question: And the relative viability (NCI-H1755; first compound 0.8 µM)?
Answer: The relative viability was 0.446.

Question: What about the relative viability (NCI-H1755; first compound 2.53 µM) of the same compound?
Answer: The relative viability was 0.438.

Question: What about the relative viability (NCI-H2170; first compound 0.08 µM) of the same compound?
Answer: The relative viability was 0.429.

Question: What about the relative viability (NCI-H2170; first compound 0.8 µM) of the same compound?
Answer: The relative viability was 0.383.

Question: And the relative viability (NCI-H2170; first compound 2.53 µM)?
Answer: The relative viability was 0.371.

Question: And the relative viability (NCI-H647; first compound 0.08 µM)?
Answer: Its relative viability is 0.434.

Question: And the relative viability (NCI-H647; first compound 0.253 µM)?
Answer: The relative viability was 0.303.

Question: And the relative viability (NCI-H647; first compound 0.8 µM)?
Answer: Its relative viability is 0.419.

Question: And the relative viability (NCI-H647; first compound 2.53 µM)?
Answer: Its relative viability is 0.393.
